Experimental data reported in patent US20240376099A1, “COMPOUNDS AND COMPOSITIONS AS INHIBITORS OF ENDOSOMAL TOLL-LIKE RECEPTORS” (Novartis AG, priority 2016, published 2024).

target: T1, TLR8 (Homo sapiens, UniProt Q9NR97); assay: THP-1 TLR8 Antagonist TNFalpha TR-FRET Assay; type: cell-based; design: endogenous in cells; conditions: THP-1 cells with R848 agonist, 18-20 hrs; TNFalpha TR-FRET read-out
T1 sequence (Q9NR97 27-1041): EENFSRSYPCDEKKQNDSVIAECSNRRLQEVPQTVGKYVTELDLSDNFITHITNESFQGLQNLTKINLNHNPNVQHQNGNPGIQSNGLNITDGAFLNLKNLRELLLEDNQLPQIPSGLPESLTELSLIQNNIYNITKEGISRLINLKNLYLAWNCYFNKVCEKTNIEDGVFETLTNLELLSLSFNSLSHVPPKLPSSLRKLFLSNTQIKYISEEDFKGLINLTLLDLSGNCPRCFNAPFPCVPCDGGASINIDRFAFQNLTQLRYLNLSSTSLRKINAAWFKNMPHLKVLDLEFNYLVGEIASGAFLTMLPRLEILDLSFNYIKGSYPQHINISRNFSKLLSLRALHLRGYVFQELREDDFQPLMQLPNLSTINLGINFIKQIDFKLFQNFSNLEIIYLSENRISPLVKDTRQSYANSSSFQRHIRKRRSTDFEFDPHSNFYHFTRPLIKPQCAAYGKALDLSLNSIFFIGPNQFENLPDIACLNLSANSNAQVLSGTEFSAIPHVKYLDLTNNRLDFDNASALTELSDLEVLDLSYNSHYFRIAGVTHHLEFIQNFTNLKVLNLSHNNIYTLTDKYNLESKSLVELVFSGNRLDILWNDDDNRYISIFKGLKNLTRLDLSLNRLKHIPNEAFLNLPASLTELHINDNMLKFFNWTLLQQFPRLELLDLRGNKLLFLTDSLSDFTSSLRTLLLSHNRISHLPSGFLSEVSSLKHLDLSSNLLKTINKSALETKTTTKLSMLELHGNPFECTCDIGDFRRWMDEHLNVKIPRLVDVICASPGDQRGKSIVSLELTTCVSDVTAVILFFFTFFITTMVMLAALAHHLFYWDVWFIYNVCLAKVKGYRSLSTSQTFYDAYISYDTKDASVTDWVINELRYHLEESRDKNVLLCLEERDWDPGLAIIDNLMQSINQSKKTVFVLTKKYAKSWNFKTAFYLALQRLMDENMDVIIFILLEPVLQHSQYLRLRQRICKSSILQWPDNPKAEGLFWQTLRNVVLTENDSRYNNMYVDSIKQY
Protocol: Cell-based assay: • 1) THP-1cells were cultured in RPMI 1640 with 10% FBS, 10 mM HEPES, 1 mM Sodium Pyruvate, 1% Penicillin-Streptomycin L-glutamine, and 1% Non-Essential Amino Acids; • 2) 3 sets of different passages of THP-1cells in assay media were pooled, counted, and resuspended in the same media as culture media, but with 5% FBS; • 3) Cells were diluted to 100,000 cells/well (30 μl/well) and the R848 agonist was diluted to 25 μM in 10 μl/well in media; • 4) The cell and agonist dilutions were combined and 40 μl/well were added to 384-well flat bottom Greiner assay plates containing test compounds in DMSO, which were Echo pre-spotted at 50 nL per well with a 8 mM top dose and 10 point 1:3 serial dilutions—10 μM final top dose; • 5) The plates were incubated overnight for 18-20 hrs at 37 degrees with 5% CO2; • 6) The plates were then centrifuged at 1000 rpm for 2 min at rt; • 7) 10 μl/well of supernatants were transferred to 384-well low volume white Greiner proxiplates; and • 8) TNFα levels were measured using the TR-FRET assay described below.
• 1) Cisbio Human TNFalpha kit, 20,000 tests (62TNFPEC), and Greiner Bio-One LIA-white TC 384 well small volume plates (cat #784080) were used; • 2) the Anti-TNFalpha Cryptate conjugate and the Anti-TNFalpha XL665 conjugate were diluted 1:20 in Reconstitution Buffer; • 3) a 1:1 mixture of 5 μl/well Anti-TNFalpha Cryptate conjugate and 5 μl/well Anti-TNFalpha XL665 conjugate was prepared; • 4) 10 μl/well HTRF dilution mastermix were added to 10 μl of transferred supernatant samples in proxiplates; • 5) The plates were incubated for 3 hrs at rt in the dark; and • 6) the levels of TNFalpha production was measured using an Envision plate reader (665 nm (emmission)/590 nm (excitation)).

Row | IC50 [µM] | Compound
1 | 8.23 | Cn1ncc2c(N3CCc4c(cnn4CC45CCC(N)(CC4)CC5)C3)nc(N)nc21 [compound 11, 4-(1-((4-aminobicyclo[2.2.2]octan-1-yl)methyl)-6,7-dihydro-1H-pyrazolo[4,3-c]pyridin-5(4H)-yl)-1-methyl-1H-pyrazolo[3,4-d]pyrimidin-6-amine]
2 | > 10 | Cn1ncc2c(N3CCc4nn(CC56CCC(N)(CC5)CC6)cc4C3)nc(N)nc21 [compound 12, 4-(2-((4-aminobicyclo[2.2.2]octan-1-yl)methyl)-6,7-dihydro-2H-pyrazolo[4,3-c]pyridin-5(4H)-yl)-1-methyl-1H-pyrazolo[3,4-d]pyrimidin-6-amine]
3 | > 10 | Cc1c2c(nn1CC13CCC(N)(CC1)CC3)CCN(c1nc(N)nc3c1cnn3C)C2 [compound 14, 4-(2-((4-aminobicyclo[2.2.2]octan-1-yl)methyl)-3-methyl-6,7-dihydro-2H-pyrazolo[4,3-c]pyridin-5(4H)-yl)-1-methyl-1H-pyrazolo[3,4-d]pyrimidin-6-amine]
